# Numbered stars: 1 amine (or outer) side, 2 acyl side, 3 side chain; on linkers, the order of the positions; unused ones are H or OH. Square brackets hold non-standard residues; d marks the D form. Side chains are listed from the residue outwards. Peptide text beside a SMILES is read from it. * marks the point of attachment. C18 diacid = O=C(O)CCCCCCCCCCCCCCCCC(=O)*; γGlu = O=C(O)[C@H](CCC(=O)[*:2])N[*:1]; AEEA = NCCOCCOCC(=O)O; Aib = CC(C)(N)C(=O)O
# Legend:
# GC receptor = molecular target: T1, GC receptor (Homo sapiens, UniProt P47871); test: GC receptor mediated cAMP production in vitro (HEK293 cells transfected with GC receptor); assay type: cell-based; details: 20 min at 37° C., read-out: GCGR (nM EC50)
# T1 construct: expressed in transfected cells; host or cells: HEK293 cells
# T1 sequence (P47871 26-477): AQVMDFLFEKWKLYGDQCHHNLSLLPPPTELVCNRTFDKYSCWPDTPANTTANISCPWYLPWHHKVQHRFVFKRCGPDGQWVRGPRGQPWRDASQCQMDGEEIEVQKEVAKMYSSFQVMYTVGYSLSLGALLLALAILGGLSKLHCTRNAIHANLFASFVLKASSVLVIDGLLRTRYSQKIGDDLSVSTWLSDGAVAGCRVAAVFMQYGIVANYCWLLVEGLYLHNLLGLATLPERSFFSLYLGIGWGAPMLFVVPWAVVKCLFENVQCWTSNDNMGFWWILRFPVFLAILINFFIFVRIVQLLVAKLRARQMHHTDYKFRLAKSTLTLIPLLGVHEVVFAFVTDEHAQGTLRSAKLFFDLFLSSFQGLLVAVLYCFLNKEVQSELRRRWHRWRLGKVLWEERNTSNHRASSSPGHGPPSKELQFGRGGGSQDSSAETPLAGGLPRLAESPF
# Source text: The medium was removed, the cells were lysed, and cAMP values were detected referring to the detection method described for the assay kit.
# physchem = assay type: physicochemical; details: pH 7.5, Solubility
# Description: 2 mg of the compound was weighed, dissolved in 1 ml of phosphate buffer solutions with different concentrations (10, 20 mM) and different pH values (7.5, 8.0), and centrifuged, and supernatant was taken. The peak area was measured by HPLC (chromatographic column: Aeris widepore XB-C18 3.6 mm, 4.6×150 mm; mobile phase: A: 0.05% TFA, B: 95% acetonitrile; detection wavelength: 214 nm) and compared with a corresponding sample standard solution, and the relative concentration of the test sample solution is calculated.
# 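For Solubility in this document: compound added at 2 mg per mL of phosphate buffer, with the dissolved amount determined in the supernatant.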
Structure (SMILES),EC50 (GC receptor),"solubility (physchem; pH 7.5, 10 mM phosphate buffer)","solubility (physchem; pH 7.5, 20 mM phosphate buffer)"
"CCCCCCCCCCCCCCCC(=O)N[C@@H](CCC(=O)N[C@@H](CCC(=O)NCCCC[C@H](NC(=O)[C@H](C)NC(=O)[C@H](C)NC(=O)[C@H](CCCNC(=N)N)NC(=O)[C@H](CCC(=O)O)NC(=O)[C@H](CC(=O)O)NC(=O)[C@H](CC(C)C)NC(=O)[C@H](Cc1ccc(O)cc1)NC(=O)[C@H](CCCCN)NC(=O)[C@H](CO)NC(=O)[C@H](Cc1ccc(O)cc1)NC(=O)[C@H](CC(=O)O)NC(=O)[C@H](CO)NC(=O)[C@@H](NC(=O)[C@H](Cc1ccccc1)NC(=O)[C@@H](NC(=O)CNC(=O)[C@H](CCC(N)=O)NC(=O)C(C)(C)NC(=O)[C@@H](N)Cc1c[nH]cn1)[C@@H](C)O)[C@@H](C)O)C(=O)N[C@@H](CCC(=O)O)C(=O)N[C@@H](Cc1ccccc1)C(=O)N[C@H](C(=O)N[C@@H](C)C(=O)N[C@@H](Cc1c[nH]c2ccccc12)C(=O)N[C@@H](CC(C)C)C(=O)N[C@@H](CCC(=O)O)C(=O)N[C@@H](C)C(=O)NCC(=O)NCC(=O)N1CCC[C@H]1C(=O)N[C@@H](CO)C(=O)N[C@@H](CO)C(=O)NCC(N)=O)C(C)C)C(=O)O)C(=O)O [Compound 15] (HELM PEPTIDE1{H.[Aib].Q.G.T.F.T.S.D.Y.S.K.Y.L.D.E.R.A.A.K.E.F.V.A.W.L.E.A.G.G.P.S.S.G.[am]}|PEPTIDE2{[CCCCCCCCCCCCCCCC(=O)[*:2]].[gGlu].[gGlu]}$PEPTIDE1,PEPTIDE2,20:R3-3:R2$$$V2.0; N-terminus assumed)",0.148 nM,,
"CCCCCCCCCCCCCCCC(=O)N[C@@H](CCC(=O)N[C@@H](CCC(=O)NCCCC[C@H](NC(=O)[C@H](CC(=O)O)NC(=O)[C@H](CO)NC(=O)[C@@H](NC(=O)[C@H](Cc1ccccc1)NC(=O)[C@@H](NC(=O)CNC(=O)[C@H](CCC(N)=O)NC(=O)C(C)(C)NC(=O)[C@@H](N)Cc1c[nH]cn1)[C@@H](C)O)[C@@H](C)O)C(=O)N[C@@H](CO)C(=O)N[C@@H](CCCCN)C(=O)N[C@@H](Cc1ccc(O)cc1)C(=O)N[C@@H](CC(C)C)C(=O)N[C@@H](CCC(=O)O)C(=O)N[C@@H](CCC(=O)O)C(=O)N[C@@H](CCCCN)C(=O)N[C@@H](CCCNC(=N)N)C(=O)N[C@@H](C)C(=O)N[C@@H](CCCCN)C(=O)N[C@@H](CCC(=O)O)C(=O)N[C@@H](Cc1ccccc1)C(=O)N[C@H](C(=O)N[C@@H](CCC(=O)O)C(=O)N[C@@H](Cc1c[nH]c2ccccc12)C(=O)N[C@@H](CC(C)C)C(=O)N[C@@H](CCC(=O)O)C(=O)N[C@@H](C)C(=O)NCC(=O)NCC(=O)N1CCC[C@H]1C(=O)N[C@@H](CO)C(=O)N[C@@H](CO)C(=O)NCC(N)=O)[C@@H](C)CC)C(=O)O)C(=O)O [Compound 11] (HELM PEPTIDE1{H.[Aib].Q.G.T.F.T.S.D.K.S.K.Y.L.E.E.K.R.A.K.E.F.I.E.W.L.E.A.G.G.P.S.S.G.[am]}|PEPTIDE2{[CCCCCCCCCCCCCCCC(=O)[*:2]].[gGlu].[gGlu]}$PEPTIDE1,PEPTIDE2,10:R3-3:R2$$$V2.0; N-terminus assumed)",1.73 nM,,
"CCCCCCCCCCCCCCCC(=O)N[C@@H](CCC(=O)N[C@@H](CCC(=O)NCCCC[C@H](NC(=O)[C@H](C)NC(=O)[C@H](CCCNC(=N)N)NC(=O)[C@H](CCCCN)NC(=O)[C@H](CCC(=O)O)NC(=O)[C@H](CCC(=O)O)NC(=O)[C@H](CC(C)C)NC(=O)[C@H](Cc1ccc(O)cc1)NC(=O)[C@H](CCCCN)NC(=O)[C@H](CO)NC(=O)[C@H](Cc1ccc(O)cc1)NC(=O)[C@H](CC(=O)O)NC(=O)[C@H](CO)NC(=O)[C@@H](NC(=O)[C@H](Cc1ccccc1)NC(=O)[C@@H](NC(=O)CNC(=O)[C@H](CCC(N)=O)NC(=O)C(C)(C)NC(=O)[C@@H](N)Cc1c[nH]cn1)[C@@H](C)O)[C@@H](C)O)C(=O)N[C@@H](CCC(=O)O)C(=O)N[C@@H](Cc1ccccc1)C(=O)N[C@H](C(=O)N[C@@H](CCC(=O)O)C(=O)N[C@@H](Cc1c[nH]c2ccccc12)C(=O)N[C@@H](CC(C)C)C(=O)N[C@@H](CCC(=O)O)C(=O)NCC(=O)NCC(=O)N1CCC[C@H]1C(=O)N[C@@H](CO)C(=O)N[C@@H](CO)C(=O)NCC(N)=O)C(C)C)C(=O)O)C(=O)O [Compound 76] (HELM PEPTIDE1{H.[Aib].Q.G.T.F.T.S.D.Y.S.K.Y.L.E.E.K.R.A.K.E.F.V.E.W.L.E.G.G.P.S.S.G.[am]}|PEPTIDE2{[CCCCCCCCCCCCCCCC(=O)[*:2]].[gGlu].[gGlu]}$PEPTIDE1,PEPTIDE2,20:R3-3:R2$$$V2.0; N-terminus assumed)",0.191 nM,,
CC(C)C[C@H](NC(=O)[C@H](Cc1c[nH]c2ccccc12)NC(=O)[C@H](C)NC(=O)[C@@H](NC(=O)[C@H](Cc1ccccc1)NC(=O)[C@H](CCC(=O)O)NC(=O)[C@H](CCCCN)NC(=O)[C@H](C)NC(=O)[C@H](C)NC(=O)[C@H](CCCNC(=N)N)NC(=O)[C@H](CCC(=O)O)NC(=O)[C@H](CC(=O)O)NC(=O)[C@H](CC(C)C)NC(=O)[C@H](Cc1ccc(O)cc1)NC(=O)[C@H](CCCCN)NC(=O)[C@H](CO)NC(=O)[C@H](CCCCNC(=O)COCCOCCNC(=O)COCCOCCNC(=O)CC[C@H](NC(=O)CCCCCCCCCCCCCCCCC(=O)O)C(=O)O)NC(=O)[C@H](CC(=O)O)NC(=O)[C@H](CO)NC(=O)[C@@H](NC(=O)[C@H](Cc1ccccc1)NC(=O)[C@@H](NC(=O)CNC(=O)[C@H](CCC(N)=O)NC(=O)C(C)(C)NC(=O)[C@@H](N)Cc1c[nH]cn1)[C@@H](C)O)[C@@H](C)O)C(C)C)C(=O)N[C@@H](CCC(=O)O)C(=O)N[C@@H](C)C(=O)NCC(=O)NCC(=O)N1CCC[C@H]1C(=O)N[C@@H](CO)C(=O)N[C@@H](CO)C(=O)NCC(N)=O [Compound 24] (H-H[Aib]QGTFTSDK([AEEA-AEEA-γGlu-C18 diacid])SKYLDERAAKEFVAWLEAGGPSSG-NH2),,> 2000 µg/mL,> 2000 µg/mL

# Now from value to compound:
EC50 (GC receptor),"solubility (physchem; pH 7.5, 10 mM phosphate buffer)","solubility (physchem; pH 7.5, 20 mM phosphate buffer)",Structure (SMILES)
0.316 nM,,,CC(C)C[C@H](NC(=O)[C@H](Cc1c[nH]c2ccccc12)NC(=O)[C@H](C)NC(=O)[C@@H](NC(=O)[C@H](Cc1ccccc1)NC(=O)[C@H](CCC(=O)O)NC(=O)[C@H](CCCCNC(=O)COCCOCCNC(=O)COCCOCCNC(=O)CC[C@H](NC(=O)CCCCCCCCCCCCCCCCC(=O)O)C(=O)O)NC(=O)[C@H](C)NC(=O)[C@H](CCCNC(=N)N)NC(=O)[C@H](CCCCN)NC(=O)[C@H](CCC(=O)O)NC(=O)[C@H](CCC(=O)O)NC(=O)[C@H](CC(C)C)NC(=O)[C@H](Cc1ccc(O)cc1)NC(=O)[C@H](CCCCN)NC(=O)[C@H](CO)NC(=O)[C@H](Cc1ccc(O)cc1)NC(=O)[C@H](CC(=O)O)NC(=O)[C@H](CO)NC(=O)[C@@H](NC(=O)[C@H](Cc1ccccc1)NC(=O)[C@@H](NC(=O)CNC(=O)[C@H](CCC(N)=O)NC(=O)C(C)(C)NC(=O)[C@@H](N)Cc1c[nH]cn1)[C@@H](C)O)[C@@H](C)O)C(C)C)C(=O)N[C@@H](CCC(=O)O)C(=O)N[C@@H](C)C(=O)NCC(=O)NCC(=O)N1CCC[C@H]1C(=O)N[C@@H](CO)C(=O)N[C@@H](CO)C(=O)NCC(N)=O [Compound 53] (H-H[Aib]QGTFTSDYSKYLEEKRAK([AEEA-AEEA-γGlu-C18 diacid])EFVAWLEAGGPSSG-NH2; N-terminus assumed)
6.25 nM,,,"CCCCCCCCCCCCCCCC(=O)N[C@@H](CCC(=O)N[C@@H](CCC(=O)NCCCC[C@H](NC(=O)[C@H](CC(=O)O)NC(=O)[C@H](CO)NC(=O)[C@@H](NC(=O)[C@H](Cc1ccccc1)NC(=O)[C@@H](NC(=O)CNC(=O)[C@H](CCC(N)=O)NC(=O)C(C)(C)NC(=O)[C@@H](N)Cc1c[nH]cn1)[C@@H](C)O)[C@@H](C)O)C(=O)N[C@@H](CO)C(=O)N[C@@H](CCCCN)C(=O)N[C@@H](Cc1ccc(O)cc1)C(=O)N[C@@H](CC(C)C)C(=O)N[C@@H](CCC(=O)O)C(=O)N[C@@H](CO)C(=O)N[C@@H](CCC(=O)O)C(=O)N[C@@H](CCCNC(=N)N)C(=O)N[C@@H](C)C(=O)N[C@@H](CCCCN)C(=O)N[C@@H](CCC(=O)O)C(=O)N[C@@H](Cc1ccccc1)C(=O)N[C@H](C(=O)N[C@@H](CCC(=O)O)C(=O)N[C@@H](Cc1c[nH]c2ccccc12)C(=O)N[C@@H](CC(C)C)C(=O)N[C@H](C(=O)N[C@@H](CCCCN)C(=O)N[C@@H](CCC(=O)O)C(=O)NCC(=O)NCC(=O)N1CCC[C@H]1C(=O)N[C@@H](CO)C(=O)N[C@@H](CO)C(=O)NCC(N)=O)C(C)C)C(C)C)C(=O)O)C(=O)O [Compound 19] (HELM PEPTIDE1{H.[Aib].Q.G.T.F.T.S.D.K.S.K.Y.L.E.S.E.R.A.K.E.F.V.E.W.L.V.K.E.G.G.P.S.S.G.[am]}|PEPTIDE2{[CCCCCCCCCCCCCCCC(=O)[*:2]].[gGlu].[gGlu]}$PEPTIDE1,PEPTIDE2,10:R3-3:R2$$$V2.0; N-terminus assumed)"
0.102 nM,,,CC[C@H](C)[C@H](NC(=O)[C@H](Cc1ccccc1)NC(=O)[C@H](CCC(=O)O)NC(=O)[C@H](CCCCNC(=O)COCCOCCNC(=O)COCCOCCNC(=O)CC[C@H](NC(=O)CCCCCCCCCCCCCCCCC(=O)O)C(=O)O)NC(=O)[C@H](C)NC(=O)[C@H](C)NC(=O)[C@H](CCCNC(=N)N)NC(=O)[C@H](CCC(=O)O)NC(=O)[C@H](CC(=O)O)NC(=O)[C@H](CC(C)C)NC(=O)[C@H](Cc1ccc(O)cc1)NC(=O)[C@H](CCCCN)NC(=O)[C@H](CO)NC(=O)[C@H](Cc1ccc(O)cc1)NC(=O)[C@H](CC(=O)O)NC(=O)[C@H](CO)NC(=O)[C@@H](NC(=O)[C@H](Cc1ccccc1)NC(=O)[C@@H](NC(=O)CNC(=O)[C@H](CCC(N)=O)NC(=O)[C@H](CO)NC(=O)[C@@H](N)Cc1c[nH]cn1)[C@@H](C)O)[C@@H](C)O)C(=O)N[C@@H](C)C(=O)N[C@@H](Cc1c[nH]c2ccccc12)C(=O)N[C@@H](CC(C)C)C(=O)N[C@@H](CCC(=O)O)C(=O)NCC(=O)NCC(=O)N1CCC[C@H]1C(=O)N[C@@H](CO)C(=O)N[C@@H](CO)C(=O)NCC(N)=O [Compound 38] (H-HSQGTFTSDYSKYLDERAAK([AEEA-AEEA-γGlu-C18 diacid])EFIAWLEGGPSSG-NH2; N-terminus assumed)

# Source: patent US12257287B2, “Glucagon-derived peptide and use thereof” (Tianjin Institute of Pharmaceutical Research Co., Ltd., priority 2018, dated 2025)
